Test results as given in PMC9444293 (Investigative Radiology, 2022).
Like-named read-outs stand apart in the source and are kept apart here. Marks after values point to notes of the source that are not given here.

Assays:
rat hepatocytes = experiment: Metabolism in rat hepatocytes; type: in vitro ADME; conditions: 2.5 μmol/L (10 μmol Gd/L), 4 hours
[1] = type: physicochemical; conditions: after 3 days
[2] = rat
[3] = type: physicochemical; conditions: 37°C, pH 7.4, 21 days (3 weeks)
[4] = Osmolality of the formulation; type: physicochemical; conditions: formulation 0.3 mol Gd/L
[5] = Nuclear magnetic relaxation dispersion; type: physicochemical; conditions: 37°C
[6] = IV 0.1 mmol Gd/kg bw
[7] = Viscosity of the formulation; type: physicochemical; conditions: formulation 0.3 mol Gd/L
Partition coefficient = type: physicochemical; conditions: pH 7.4, room temperature
[8] = Solubility in buffer solution; type: physicochemical; conditions: buffer 10 mM Tris-HCl, pH 7.4, room temperature (20°C), 24 hours
[9] = test system: GS9L (rat glioblastoma) brain tumors; experiment: Contrast-enhanced MRI of GS9L brain tumors in rats; type: in vivo; conditions: GS9L rats n = 4, 1.5 T, 5 minutes p.i., both 0.1 mmol Gd/kg bw, intraindividual
[10] = HPLC-ICP-MS analysis of rat urine for metabolites; type: in vivo; conditions: rat urine up to 6 hours after single IV 0.1 mmol Gd/kg bw
[11] = r1-relaxivity at 3.0 T in human plasma; type: physicochemical; conditions: for r1-Relaxivity in Human Plasma at 37°C, 3.0 T (per Gd): pH 7.4, per Gd; for r1-Relaxivity in Human Plasma at 37°C, 3.0 T (per molecule): pH 7.4, per molecule
r1-relaxivity at 1.41 T = type: physicochemical, human; conditions: for r1-Relaxivity in Human Plasma at 37°C, 1.5 T (per molecule): pH 7.4, per molecule
human hepatocytes = experiment: Metabolism in human hepatocytes; type: in vitro ADME; conditions: 2.5 μmol/L (10 μmol Gd/L), 4 hours
[12] = Blood-to-plasma partition ratio; type: in vitro ADME; conditions: 6 human donors, 0.25 mmol Gd/L, 60 minutes, 37°C, mean ± SD
plasma proteins [13] = experiment: Protein binding in rat plasma, equilibrium dialysis; type: in vitro ADME; conditions: 3 μmol Gd/L, 37°C, 2 hours
[14] = Number of inner sphere water molecules; type: physicochemical; conditions: per Gd
plasma proteins [15] = experiment: Protein binding in human plasma, equilibrium dialysis; type: in vitro ADME; conditions: 3 μmol Gd/L, 37°C, 2 hours
[16] = 7 days after single IV 0.1 mmol Gd/kg bw
[17] = 7 days after single IV 0.1 mmol Gd/kg bw, LLOQ 0.05
[18] = rat, 3-compartment model, listed as BAY 1747846

## CC(C(=O)NCC(=O)NCC(CNC(=O)CNC(=O)C(C)N1CCN(CC(=O)[O-])CCN(CC(=O)[O-])CCN(CC(=O)[O-])CC1)(CNC(=O)CNC(=O)C(C)N1CCN(CC(=O)[O-])CCN(CC(=O)[O-])CCN(CC(=O)[O-])CC1)CNC(=O)CNC(=O)C(C)N1CCN(CC(=O)[O-])CCN(CC(=O)[O-])CCN(CC(=O)[O-])CC1)N1CCN(CC(=O)[O-])CCN(CC(=O)[O-])CCN(CC(=O)[O-])CC1.[Gd+3].[Gd+3].[Gd+3].[Gd+3] (stereo not shown) [Gadoquatrane, tetragadolinium [4,10-bis(carboxylatomethyl)-7-{3,6,12,15-tetraoxo-16-[4,7,10-tris-(carboxyl-atomethyl)-1,4,7,10-tetraazacyclododecan-1-yl]-9,9-bis({[({2-[4,7,10-tris-(carboxylatomethyl)-1,4,7,10-tetraazacyclododecan-1-yl]propanoyl}amino)acetyl]-amino}methyl)-4,7,11,14-tetraazahepta-decan-2-yl}-1,4,7,10-tetraazacyclododecan-1-yl]acetate]
Rat hepatocytes
  In vitro uptake or metabolic degradation in hepatocytes: No in vitro uptake or metabolic degradation
[1]
  Decrease of the T1 relaxation rates (R1) in zinc transmetallation assay: no Gd^3+ release
[1]; listed as gadoquatrane
  Decrease of the T1 relaxation rates (R1) in zinc transmetallation assay: no change
[2]; [16]
  Gadolinium concentration, Bone marrow: 0.413 ± 0.048 nmol Gd/g wet tissue
  Gadolinium concentration, Carcass: 0.693 ± 0.126 nmol Gd/g wet tissue
  Gadolinium concentration, Heart: 0.133 ± 0.014 nmol Gd/g wet tissue
  Gadolinium concentration, Intestine: 0.316 ± 0.120 nmol Gd/g wet tissue
  Gadolinium concentration, Kidney: 20.3 ± 1.37 nmol Gd/g wet tissue
  Gadolinium concentration, Liver: 0.564 ± 0.065 nmol Gd/g wet tissue
  Gadolinium concentration, Lung: 0.359 ± 0.024 nmol Gd/g wet tissue
  Gadolinium concentration, Mesenterial lymph nodes: 1.20 ± 0.336 nmol Gd/g wet tissue
  Gadolinium concentration, Muscle: 0.119 ± 0.021 nmol Gd/g wet tissue
  Gadolinium concentration, Skin: 0.271 ± 0.044 nmol Gd/g wet tissue
  Gadolinium concentration, Spleen: 0.654 ± 0.175 nmol Gd/g wet tissue
  Gadolinium concentration, Stomach: 0.182 ± 0.023 nmol Gd/g wet tissue
[2]; [17]
  Gadolinium concentration, Blood: <0.05* nmol Gd/g wet tissue
  Gadolinium concentration, Brain: <0.08‡ nmol Gd/g wet tissue
[2]; femur, 7 days after single IV 0.1 mmol Gd/kg bw
  Gadolinium concentration, Bone: 0.470 ± 0.201 nmol Gd/g wet tissue
[2]; in vivo, iv
  Amount of Gd recovered in Feces, 0–5 d: 1.35% ± 0.6%
  Amount of Gd recovered in Urine, 0–1 d: 96.4% ± 3.8%
  Amount of Gd recovered in Urine, 0–5 d: 96.9% ± 3.7%
  Total recovery of Gd, 0–7 d: 98.8% ± 6.2%
[2]; single IV 0.1 mmol Gd/kg bw
  Excreted within 7 days: > 99 % of the injected dose
[3]
  Total Gd release after 21 days in human serum: no release of Gd^3+
[4]
  Osmolality at 37°C: 294 (iso-osmolar to blood) mosmol/kg H2O
[4]; listed as gadoquatrane
  Osmolality at 37°C: 294 mosmol/kg H2O
[5]; human plasma, up to 200 MHz (4.7 T)
  NMRD r1-relaxivity per Gd, fold higher compared with gadobutrol, in human plasma: 2 fold
[5]; water, 20–200 MHz (0.47–4.7 T)
  NMRD r1-relaxivity per Gd, fold higher compared with gadobutrol, in water: ~ 3 fold
[6]; rat plasma
  AUC^∞: 183 ± 11 (5.8%) μmol·h/L
  γ-AUC: 1 % of AUC^∞
[6]; rat plasma, listed as BAY 1747846
  γ-AUC: 1.2 % of AUC^∞
[6]; rat
  Clplasma: 0.55 ± 0.03 (5.8%) L/h/kg
  Vss: 0.33 ± 0.05 (14%) L/kg
[6]; rat, 3-compartment model, mean estimate ± SD (CV%)
  α t1/2: 6.3 ± 1.5 (24%) min
[6]; [18]
  β t1/2: 25 ± 1.6 (6.4%) min
  γ t1/2: 13 ± 2.9 (22%) h
[7]
  Viscosity at 37°C: 1.22 mPa·s
Partition coefficient
  Log P (1-Butanol/Buffer): −4.32
[8]
  Solubility: 1.43 mol Gd/L
[9]
  CNR (tumor-to-brain) compared with gadobutrol: clearly higher CNR
[10]
  Metabolic stability / formation of metabolites in urine: high metabolic stability and no hint of formation of metabolites
[11]
  r1-Relaxivity in Human Plasma at 37°C, 3.0 T (per Gd): 10.5 ± 0.3 mM⁻¹ s⁻¹
  r1-Relaxivity in Human Plasma at 37°C, 3.0 T (per molecule): 41.9 ± 0.6 mM⁻¹ s⁻¹
[11]; listed as gadoquatrane
  r1-Relaxivity in Human Plasma at 37°C, 3.0 T (per Gd): 10.5 mM⁻¹ s⁻¹
  r1-Relaxivity in Human Plasma at 37°C, 3.0 T (per molecule): 41.9 mM⁻¹ s⁻¹
r1-relaxivity at 1.41 T; 60 MHz (1.41 T), 37°C, pH 7.4, per Gd, mean ± SD, n = 6 batches
  r1-Relaxivity in Human Plasma at 37°C, 1.5 T (per Gd): 11.8 ± 0.3 mM⁻¹ s⁻¹
r1-relaxivity at 1.41 T; 60 MHz (1.41 T), 37°C
  r1-Relaxivity in Human Plasma at 37°C, 1.5 T (per molecule): 47.2 ± 1.0 mM⁻¹ s⁻¹
r1-relaxivity at 1.41 T; 60 MHz (1.41 T), 37°C, listed as gadoquatrane
  r1-Relaxivity in Human Plasma at 37°C, 1.5 T (per molecule): 47.2 mM⁻¹ s⁻¹
r1-relaxivity at 1.41 T; human plasma, per Gd, vs established (m)GBCAs
  r1-relaxivity in human plasma, fold higher per Gd compared with established GBCAs: more than 2 fold
Human hepatocytes
  In vitro uptake or metabolic degradation in hepatocytes: No in vitro uptake or metabolic degradation
[12]
  Blood-to-plasma ratio: 0.62 ± 0.06
Plasma proteins [13]
  Free fraction in plasma (fraction unbound): 93%
[14]
  No. Inner Sphere Water Molecules (q): q = 1
[14]; listed as gadoquatrane
  No. Inner Sphere Water Molecules (q): 1
Plasma proteins [15]
  Free fraction in plasma (fraction unbound): 96%
